Test results: ChEMBL document CHEMBL1125536, “Studies on neurokinin antagonists. 2. Design and structure-activity relationships of novel tripeptide substance P antagonists, N alpha-[N alpha-(N alpha-acetyl-L-threonyl)-N1-formyl-D-tryptophyl]-N- methyl-N-(phenylmethyl)-L-phenylalaninamide and its related compounds” (J Med Chem, 1992); call rule not given here
Each block holds one compound with its values, some of them ahead of it. Square brackets hold non-standard residues; d marks the D form. Peptide text beside a SMILES is read from it. * marks the point of attachment. Boc = CC(C)(C)OC(=O)*; OBn = c1ccc(CO*)cc1; For = O=C*

What was measured:
[1] = Inhibition of [3H]SP binding to guinea pig lung membranes
Substance-P receptor = Substance-P receptor (Cavia porcellus, UniProt P30547); experiment: Compound was tested for the inhibition of [3H]SP binding to guinea pig lung membranes; Not active
Cavia porcellus = species on record: Cavia porcellus; experiment: Compound was tested for the inhibition of SP-induced contraction of isolated guinea pig trachea strips; assay type: functional

Substance-P receptor, sequence (P30547 whole entry): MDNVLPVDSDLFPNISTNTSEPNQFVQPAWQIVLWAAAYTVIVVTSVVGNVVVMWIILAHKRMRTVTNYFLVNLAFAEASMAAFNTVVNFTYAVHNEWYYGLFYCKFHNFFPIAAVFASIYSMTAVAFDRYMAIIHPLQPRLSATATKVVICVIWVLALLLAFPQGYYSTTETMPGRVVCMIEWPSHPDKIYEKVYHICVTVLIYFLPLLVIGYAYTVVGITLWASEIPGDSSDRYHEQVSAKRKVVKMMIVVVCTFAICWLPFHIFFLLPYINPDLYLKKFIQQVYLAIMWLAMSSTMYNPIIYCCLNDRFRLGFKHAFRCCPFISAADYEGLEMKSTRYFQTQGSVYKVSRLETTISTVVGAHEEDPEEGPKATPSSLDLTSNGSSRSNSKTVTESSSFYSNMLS

Compound: CC(O)C(NC(=O)CCCC(=O)O)C(=O)N[C@H](Cc1cn(C=O)c2ccccc12)C(=O)N[C@@H](Cc1ccccc1)C(=O)N(C)Cc1ccccc1 (stereo partly drawn)
IC50 (Substance-P receptor): Not Active

Compound: CC(O)C(N)C(=O)N[C@H](Cc1cn(C=O)c2ccccc12)C(=O)N[C@@H](Cc1ccccc1)C(=O)N(C)Cc1ccccc1 (stereo partly drawn)
IC50 [1]: 600 nM

Compound: CC(O)C(NC(=O)CCC(=O)O)C(=O)N[C@H](Cc1cn(C=O)c2ccccc12)C(=O)N[C@@H](Cc1ccccc1)C(=O)N(C)Cc1ccccc1 (stereo partly drawn)
IC50 (Substance-P receptor): Not Active

Compound: CN(Cc1ccccc1)C(=O)[C@H](Cc1ccccc1)NC(=O)[C@@H](Cc1cn(C=O)c2ccccc12)NC(=O)CC(NC(=O)OC(C)(C)C)C(N)=O (stereo partly drawn)
IC50 [1]: 180 nM

Compound: CC(C)(C)OC(=O)N[C@@H](CCC(N)=O)C(=O)N[C@H](Cc1cn(C=O)c2ccccc12)C(=O)N[C@@H](Cc1ccccc1)C(=O)NCc1ccccc1
IC50 [1]: 860 nM

Compound: CC(O)C(NC(=O)N1CCOCC1)C(=O)N[C@H](Cc1cn(C=O)c2ccccc12)C(=O)N[C@@H](Cc1ccccc1)C(=O)N(C)Cc1ccccc1 (stereo partly drawn)
IC50 [1]: 20 nM

Compound: CC(C)(C)OC(=O)N[C@@H](CCC(N)=O)C(=O)N[C@H](Cc1cn(C=O)c2ccccc12)C(=O)N[C@@H](Cc1ccccc1)C(=O)CCc1ccccc1
IC50 [1]: 430 nM

Compound: C[C@@H](O)[C@H](NC(=O)CN)C(=O)N[C@H](Cc1cn(C=O)c2ccccc12)C(=O)N[C@@H](Cc1ccccc1)C(=O)N(C)Cc1ccccc1
IC50 [1]: 230 nM

Compound: CN(Cc1ccccc1)C(=O)[C@H](Cc1ccccc1)NC(=O)[C@@H](Cc1cn(C=O)c2ccccc12)NC(=O)C1CC(O)CN1C(=O)OC(C)(C)C (stereo partly drawn)
IC50 [1]: 200 nM

Compound: CC(=O)NC(CCC(=O)N(C)C)C(=O)N[C@H](Cc1cn(C=O)c2ccccc12)C(=O)N[C@@H](Cc1ccccc1)C(=O)N(C)Cc1ccccc1 (stereo partly drawn)
IC50 [1]: 30 nM

Compound: CN(Cc1ccccc1)C(=O)[C@H](Cc1ccccc1)NC(=O)[C@@H](Cc1cn(C=O)c2ccccc12)NC(=O)C(Cc1c[nH]cn1)NC(=O)OC(C)(C)C (stereo partly drawn)
IC50 [1]: 140 nM

Compound: CN(C)C(=O)CCC(NC(=O)OC(C)(C)C)C(=O)N[C@H](Cc1cn(C=O)c2ccccc12)C(=O)N[C@@H](Cc1ccccc1)C(=O)N(C)Cc1ccccc1 (stereo partly drawn)
IC50 [1]: 40 nM

Compound: CC(=O)NC(Cc1c[nH]cn1)C(=O)N[C@H](Cc1cn(C=O)c2ccccc12)C(=O)N[C@@H](Cc1ccccc1)C(=O)N(C)Cc1ccccc1 (stereo partly drawn)
IC50 [1]: 100 nM

Compound: CC(=O)NC(CO)C(=O)N[C@H](Cc1cn(C=O)c2ccccc12)C(=O)N[C@@H](Cc1ccccc1)C(=O)N(C)Cc1ccccc1 (stereo partly drawn)
IC50 [1]: 50 nM

More lines, in order of falling IC50 [1], values ahead:

IC50 [1]: 290 nM
Compound: CC(O)C(C(=O)N[C@H](Cc1cn(C=O)c2ccccc12)C(=O)N[C@@H](Cc1ccccc1)C(=O)N(C)Cc1ccccc1)N(C)C(=O)OC(C)(C)C (stereo partly drawn)

IC50 [1]: 100 nM
Compound: CC(O)C(NC(=O)CCN)C(=O)N[C@H](Cc1cn(C=O)c2ccccc12)C(=O)N[C@@H](Cc1ccccc1)C(=O)N(C)Cc1ccccc1 (stereo partly drawn)

IC50 [1]: 90 nM
Compound: CC(C)(C)OC(=O)N[C@@H](CCC(N)=O)C(=O)N[C@H](Cc1cn(C=O)c2ccccc12)C(=O)N[C@@H](Cc1ccccc1)C(=O)OCc1ccccc1 (Boc-Gln-[dW](For)-Phe-OBn)

IC50 [1]: 60 nM
Compound: CC(O)C(NC(=O)OC(C)(C)C)C(=O)N[C@H](Cc1cn(C=O)c2ccccc12)C(=O)N[C@@H](Cc1ccccc1)C(=O)N(C)Cc1ccccc1 (stereo partly drawn)

IC50 [1]: 48 nM
Compound: CN(Cc1ccccc1)C(=O)[C@H](Cc1ccccc1)NC(=O)[C@@H](Cc1cn(C=O)c2ccccc12)NC(=O)[C@H](CCC(N)=O)NC(=O)OC(C)(C)C

IC50 [1]: 20 nM
Compound: CC(O)C(NC(=O)CO)C(=O)N[C@H](Cc1cn(C=O)c2ccccc12)C(=O)N[C@@H](Cc1ccccc1)C(=O)N(C)Cc1ccccc1 (stereo partly drawn)

IC50 [1]: 20 nM
Compound: CCN(CC)CCC(=O)NC(C(=O)N[C@H](Cc1cn(C=O)c2ccccc12)C(=O)N[C@@H](Cc1ccccc1)C(=O)N(C)Cc1ccccc1)C(C)O (stereo partly drawn)

IC50 (Cavia porcellus): 2300 nM
IC50 [1]: 5.8 nM
Compound: CC(=O)NC(C(=O)N[C@H](Cc1cn(C=O)c2ccccc12)C(=O)N[C@@H](Cc1ccccc1)C(=O)N(C)Cc1ccccc1)C(C)O (stereo partly drawn)
